The source of these data is patent US11555821B2, “CA IX-NIR dyes and their uses” (On Target Laboratories, Inc., priority 2016, dated 2023).

For data set [1], the system named is SKRC52 human renal tumor xenograft. As to the kind of experiment: Whole body fluorescence imaging of SKRC52 human renal tumor xenograft bearing mouse (IVIS imager). It counts as in vivo. Particulars: 10 nmol. The method, then: SKRC52 human renal tumor xenograft bearing mouse was injected with 10 nmol of 54 and imaged with IVIS imager (ex=745 nm, em=ICG, exposure time=1 s) at different time intervals.
SKRC52 human renal tumor xenograft bearing mouse was injected with 10 nmol of 55 and imaged with IVIS imager (ex=745 nm, em=ICG, exposure time=1 s) at different time intervals.
SKRC52 human renal tumor xenograft bearing mouse was injected with 10 nmol of 60 and imaged with IVIS imager (ex=745 nm, em=ICG, exposure time=[…]) at different time intervals.
SKRC52 human renal tumor xenograft bearing mouse was injected with 10 nmol of 61 and imaged with IVIS imager (ex=745 nm, em=ICG, exposure time=[…]) at different time intervals.
SKRC52 human renal tumor xenograft bearing mouse was injected with 10 nmol of 62 and imaged with IVIS imager (ex=745 nm, em=ICG, exposure time=1 s) at different time intervals.
SKRC52 human renal tumor xenograft bearing mouse was injected with 10 nmol of 65 and imaged with IVIS imager (ex=745 nm, em=ICG, exposure time=1 s) at different time intervals.
SKRC52 human renal tumor xenograft bearing mouse was injected with 10 nmol of 69 and imaged with IVIS imager (ex=745 nm, em=ICG, exposure time=1 s) at different time intervals.
SKRC52 human renal tumor xenograft bearing mouse was injected with 10 nmol of 70 and imaged with IVIS imager (ex=745 nm, em=ICG, exposure time=1 s) at different time intervals.
SKRC52 human renal tumor xenograft bearing mouse was injected with 10 nmol 72 and imaged with IVIS imager (ex=745 nm, em=ICG, exposure time=1 s) at different time intervals
SKRC52 human renal tumor xenograft bearing mouse was injected with 10 nmol of 76 and imaged with IVIS imager (ex=745 nm, em=ICG, exposure time=1 s) at different time intervals
SKRC52 human renal tumor xenograft bearing mouse was injected with 10 nmol of 77 and imaged with IVIS imager (ex=745 nm, em=ICG, exposure time=1 s) at different time intervals
SKRC52 human renal tumor xenograft bearing mouse was injected with 10 nmol of 80 and imaged with IVIS imager (ex=745 nm, em=ICG, exposure time=1 s) at different time intervals
SKRC52 human renal tumor xenograft bearing mouse was injected with 10 nmol of 81 and imaged with IVIS imager (ex=745 nm, em=ICG, exposure time=1 s) at different time intervals
SKRC52 human renal tumor xenograft bearing mouse was injected with 10 nmol of 85 and imaged with IVIS imager (ex=745 nm, em=ICG, exposure time=1 s) at different time intervals
SKRC52 human renal tumor xenograft bearing mouse was injected with 10 nmol of 86 and imaged with IVIS imager (ex=745 nm, em=ICG, exposure time=1 s) at different time intervals
SKRC52 human renal tumor xenograft bearing mouse was injected with 10 nmol of 87 and imaged with IVIS imager (ex=745 nm, em=ICG, exposure time=1 s) at different time intervals
SKRC52 human renal tumor xenograft bearing mouse was injected with 10 nmol of 88 and imaged with IVIS imager (ex=745 nm, em=ICG, exposure time=1 s) at different time intervals
SKRC52 human renal tumor xenograft bearing mouse was injected with 10 nmol of 89 and imaged with IVIS imager (ex=745 nm, em=ICG, exposure time=1 s) at different time intervals
SKRC52 human renal tumor xenograft bearing mouse was injected with 10 nmol of 90 and imaged with IVIS imager (ex=745 nm, em=ICG, exposure time=1 s) at different time intervals
SKRC52 human renal tumor xenograft bearing mouse was injected with 10 nmol of 93 and imaged with IVIS imager (ex=745 nm, em=ICG, exposure time=1 s) at different time intervals
SKRC52 human renal tumor xenograft bearing mouse was injected with 10 nmol of 95 and imaged with IVIS imager (ex=745 nm, em=ICG, exposure time=1 s) at different time intervals
SKRC52 human renal tumor xenograft bearing mouse was injected with 10 nmol of 99 and imaged with IVIS imager (ex=745 nm, em=ICG, exposure time=1 s) at different time intervals […]
(Xenograft models place foreign cells or tissue in a host animal.)

For data set [2] the following is noted: in the presence and absence of light; cited from earlier work.
[3] abbreviates: imaged at different time intervals.
Where [4] appears, read: within 2-24 hours after administering to the animal.

Consider `CC(C)C[C@H](Nc1c(F)c(S(N)(=O)=O)c(F)c(F)c1S(=O)(=O)CCC(=O)NCCOCCOCCC(=O)N[C@@H](Cc1ccc(OC2=C(/C=C/C3=[N+](CCCCS(=O)(=O)[O-])c4ccc(S(=O)(=O)O)cc4C3(C)C)CCC/C2=C\C=C2\N(CCCCS(=O)(=O)O)c3ccc(S(=O)(=O)O)cc3C2(C)C)cc1)C(=O)O)C(=O)OCc1ccccc1` [Compound 76], for which, in data set [1] (setting [3]), the “tumor-to-background ratio (TBR)” value is “excellent” and the tumor-to-skin ratio entry was “excellent”. The “accumulation retained in the tumor (fluorescence over 24 hours)” value in data set [1] was “very high accumulation”. In data set [1] (setting [4]), the whole-body imaging data result is recorded as “very good”.

Regarding `CC1(C)C(/C=C/C=C/C=C/C=C2\N(CCCCS(=O)(=O)[O-])c3ccc4ccccc4c3C2(C)C)=[N+](CCCCS(=O)(=O)[O-])c2ccc3ccccc3c21.[Na+]` [IR125], the in vitro cytotoxicity entry in data set [2] is given as “significant values of cytotoxicity”.

Turning to `CN(C)C(N(c1c(F)c(S(N)(=O)=O)c(F)c(F)c1S(=O)(=O)CCC(=O)NCCOCCOCCC(=O)N[C@@H](Cc1ccc(OC2=C(/C=C/C3=[N+](CCCCS(=O)(=O)O)c4ccc(S(=O)(=O)O)cc4C3(C)C)CCC/C2=C\C=C2\N(CCCCS(=O)(=O)O)c3ccc(S(=O)(=O)O)cc3C2(C)C)cc1)C(=O)O)C1CCCCCCC1)=[N+](C)C` [Compound 104], in data set [1] (setting [3]), the “tumor-to-background ratio (TBR)” value is reported as “excellent” and the tumor-to-skin ratio entry is on record as “excellent”. In data set [1], the “accumulation retained in the tumor (fluorescence over 24 hours)” value was “very high accumulation”. Also, the whole-body imaging data entry in data set [1] (setting [4]) is listed as “good”.

For `CC(C)C[C@H](Nc1c(F)c(S(N)(=O)=O)c(F)c(F)c1S(=O)(=O)CCC(=O)NCCOCCOCCC(=O)N[C@@H](Cc1ccc(OC2=C(/C=C/C3=[N+](CCCCS(=O)(=O)[O-])c4ccc(S(=O)(=O)O)cc4C3(C)C)CCC/C2=C\C=C2\N(CCCCS(=O)(=O)O)c3ccc(S(=O)(=O)O)cc3C2(C)C)cc1)C(=O)O)C(=O)O` [Compound 77], in data set [1] (setting [3]), the “tumor-to-background ratio (TBR)” value is listed as “excellent” and the tumor-to-skin ratio result is listed as “excellent”. Moreover, in data set [1], the “accumulation retained in the tumor (fluorescence over 24 hours)” value is “very high accumulation”. The whole-body imaging data entry in data set [1] (setting [4]) is “very good”.

Turning to `CC1(C)C(=CC=C2CCCC(C=CC3=[N+](CCCCS(=O)(=O)[O-])c4ccc5ccccc5c4C3(C)C)=C2Cl)N(CCCCS(=O)(=O)[O-])c2ccc3ccccc3c21.[Na+]` [IR820], the in vitro cytotoxicity entry in data set [2] is recorded as “no major cytotoxic effects”.

For the compound `CN1/C(=C/C=C2\CCCC(/C=C/C3=[N+](C)c4ccc5ccccc5c4C3(C)C)=C2Cl)C(C)(C)c2c1ccc1ccccc21.Cc1ccc(S(=O)(=O)[O-])cc1` [IR813], in data set [2], the in vitro cytotoxicity result is “significant values of cytotoxicity”.

For `CC1(C)C(=CC=C2CCCC(C=CC3=[N+](CCCCS(=O)(=O)[O-])c4ccc(S(=O)(=O)O)cc4C3(C)C)=C2Oc2ccc(CC(NC(=O)CCOCCOCCNC(=O)CCS(=O)(=O)c3c(F)c(F)c(S(N)(=O)=O)c(F)c3NC(c3ccccc3)c3ccccc3)C(=O)O)cc2)N(CCCCS(=O)(=O)O)c2ccc(S(=O)(=O)O)cc21` (stereo not shown) [Compound 88], in data set [1] (after 8 hours of administering), the whole-body imaging data entry was “good”. For the same compound, in data set [1] (at 24 hour time point), the “tumor-to-background ratio (TBR)” value is given as “excellent” and the tumor-to-skin ratio entry is recorded as “excellent”.

Regarding `CC1(C)C(/C=C/C2=C(Oc3ccc(C[C@H](NC(=O)CCOCCOCCNC(=O)CCS(=O)(=O)c4ccc(S(N)(=O)=O)cc4NC4CCCCCCC4)C(=O)O)cc3)C(=C/C=C3/N(CCCCS(=O)(=O)O)c4ccc(S(=O)(=O)O)cc4C3(C)C)/CCC2)=[N+](CCCCS(=O)(=O)[O-])c2ccc(S(=O)(=O)O)cc21` [Compound 85], in data set [1], the “tumor fluorescence intensity and tumor-to-background ratio compared to the compound 61” value was “less”; the “accumulation retained in the tumor (fluorescence over 24 hours)” value is reported as “very high accumulation”. In data set [1] (setting [3]), the “tumor-to-background ratio (TBR)” value was “excellent” and the tumor-to-skin ratio entry is on record as “excellent”. Besides, the whole-body imaging data entry in data set [1] (setting [4]) is recorded as “very good”.

`CC1(C)C(/C=C/C2=C(Oc3ccc(C[C@H](NC(=O)CCOCCOCCNC(=O)CCS(=O)(=O)c4c(F)c(F)c(S(N)(=O)=O)c(F)c4NC4CCCCC4)C(=O)O)cc3)C(=C/C=C3/N(CCCCS(=O)(=O)O)c4ccc(S(=O)(=O)O)cc4C3(C)C)/CCC2)=[N+](CCCCS(=O)(=O)[O-])c2ccc(S(=O)(=O)O)cc21` [Compound 60]: in data set [1] (setting [3]), the “tumor-to-background ratio (TBR)” value is “excellent” and the tumor-to-skin ratio result is on record as “excellent”. For the same compound, in data set [1], the “accumulation retained in the tumor (fluorescence over 24 hours)” value was “very high accumulation”. The whole-body imaging data entry in data set [1] (setting [4]) is listed as “very good”.

As for `CC1(C)C(/C=C/C2=C(Oc3ccc(C[C@H](NC(=O)CCS(=O)(=O)c4c(F)c(F)c(S(N)(=O)=O)c(F)c4NC4CCCCCCC4)C(=O)O)cc3)C(=C/C=C3/N(CCCCS(=O)(=O)O)c4ccc(S(=O)(=O)O)cc4C3(C)C)/CCC2)=[N+](CCCCS(=O)(=O)[O-])c2ccc(S(=O)(=O)O)cc21` [Compound 62], in data set [1] (setting [3]), the “tumor-to-background ratio (TBR)” value is “excellent” and the tumor-to-skin ratio entry is reported as “excellent”. For the same compound, the “accumulation retained in the tumor (fluorescence over 24 hours)” value in data set [1] is recorded as “very high accumulation”. In addition, the whole-body imaging data entry in data set [1] (setting [4]) is on record as “very good”.

Turning to `CC1(C)C(/C=C/C2=C(Oc3ccc(C[C@H](NC(=O)CCOCCOCCNC(=O)CCS(=O)(=O)c4c(F)c(F)c(S(N)(=O)=O)c(F)c4NC4CCC(F)(F)CC4)C(=O)O)cc3)C(=C/C=C3/N(CCCCS(=O)(=O)O)c4ccc(S(=O)(=O)O)cc4C3(C)C)/CCC2)=[N+](CCCCS(=O)(=O)[O-])c2ccc(S(=O)(=O)O)cc21` [Compound 72], in data set [1] (setting [3]), the “tumor-to-background ratio (TBR)” value is “excellent” and the tumor-to-skin ratio result is reported as “excellent”. Besides, in data set [1], the “accumulation retained in the tumor (fluorescence over 24 hours)” value was “very high accumulation”. In data set [1] (setting [4]), the whole-body imaging data result is listed as “very good”.

In the case of `CC1(C)C(/C=C/C2=C(Oc3ccc(C[C@H](NC(=O)CCOCCOCCNc4c(F)c(S(N)(=O)=O)c(F)c(F)c4S(=O)(=O)CCO)C(=O)O)cc3)C(=C/C=C3/N(CCCCS(=O)(=O)O)c4ccc(S(=O)(=O)O)cc4C3(C)C)/CCC2)=[N+](CCCCS(=O)(=O)[O-])c2ccc(S(=O)(=O)O)cc21` [Compound 86], the “brightness compared to 60 and 61” value in data set [1] was “less brighter”. Also, in data set [1] (setting [4]), the whole-body imaging data result was “very good”.
